{
  "source": "patent US20030152597A1",
  "about": "“Use of at least one sapogenin for prevening the skin or ageing symptoms” (priority 2000, published 2003)",
  "test_system": "collagenase produced by Clostridium Histolyticum",
  "assay": "Inhibition of collagenase activity (DQ-gelatin fluorescence)",
  "type": "biochemical",
  "details": "decrease in collagenase activity relative to the control",
  "description": "The effect of an extract of wild yam on the inhibition of the activity of collagenase produced by Clostridium Histolyticum was evaluated. Although different from a human enzyme, this collagenase is used on account of its ability to digest human collagen. […]\nThe control consisted of collagenase without test product. Thus, the activity of the control constitutes 100% collagenase activity and thus 0% inhibition of the said activity.\nThe products were preincubated with the enzyme for 10 minutes at room temperature, and DQ-gelatin was then added and the fluorescence obtained on degradation of the substrate was recorded for 10 minutes (excitation 480 nm; emission 538 nm) on a SpectraMax spectrofluorimetre (Molecular Devices); the results were processed using Soft Max Pro software.\nThe percentages indicated represent the decrease in collagenase activity relative to the control.",
  "data": [
    {"smiles": "c1cnc2c(c1)ccc1cccnc12", "note": "[Phenanthroline, phenanthroline]", "values": [
      {"measurement": "% inhibition (n = 4)", "setting": "0.1 mM in ethanol", "result": 96, "unit": "%"},
      {"measurement": "% inhibition (n = 4)", "setting": "0.25 mM in ethanol", "result": 40, "unit": "%"},
      {"measurement": "% inhibition (n = 4)", "setting": "0.5 mM in ethanol", "result": 65, "unit": "%"}
    ]}
  ]
}
